System: 786-0 complex spheroids with HUVEC/MSC, growth % test/control
Experiment: Anticancer human tumor 786-0 cell line growth inhibition [AhR];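 note: compound exposure lasted seven days before the read-out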
Conditions: for IC50: curve of first compound; for viability, T/C: stronger effect = lower value
How it was run: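 Agents were dosed in half-log steps down from roughly clinical Cmax, or from 10 microM where Cmax was unknown, alone and with AhR antagonists. Read-out: percent test/control growth of tumor spheroids containing HUVEC and MSC stromal cells.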

[1] = second compound 0.1 µM, first compound 0.0316 µM
[2] = second compound 0.1 µM, first compound 0.1 µM
[3] = second compound 0.1 µM, first compound 0.316 µM
[4] = second compound 0.1 µM, first compound 1 µM
[5] = second compound 0.1 µM, first compound 3.16 µM
[6] = second compound 0.1 µM, first compound 10 µM
[7] = second compound 0.316 µM, first compound 0.0316 µM
[8] = second compound 0.316 µM, first compound 0.1 µM
[9] = second compound 0.316 µM, first compound 0.316 µM
[10] = second compound 0.316 µM, first compound 1 µM
[11] = second compound 0.316 µM, first compound 3.16 µM
[12] = second compound 0.316 µM, first compound 10 µM
[13] = second compound 1 µM, first compound 0.0316 µM
[14] = second compound 1 µM, first compound 0.1 µM
[15] = second compound 1 µM, first compound 0.316 µM
[16] = second compound 1 µM, first compound 1 µM
[17] = second compound 1 µM, first compound 3.16 µM
[18] = second compound 1 µM, first compound 10 µM
[19] = second compound 3.16 µM, first compound 0.0316 µM
[20] = second compound 3.16 µM, first compound 0.1 µM
[21] = second compound 3.16 µM, first compound 0.316 µM
[22] = second compound 3.16 µM, first compound 1 µM
[23] = second compound 3.16 µM, first compound 3.16 µM
[24] = second compound 3.16 µM, first compound 10 µM
[25] = second compound 10 µM, first compound 0.0316 µM
[26] = second compound 10 µM, first compound 0.1 µM
[27] = second compound 10 µM, first compound 0.316 µM
[28] = second compound 10 µM, first compound 1 µM
[29] = second compound 10 µM, first compound 3.16 µM
[30] = second compound 10 µM, first compound 10 µM
[31] = second compound 0.1 µM, first compound 0.00949 µM
[32] = second compound 0.1 µM, first compound 0.03 µM
[33] = second compound 0.1 µM, first compound 0.0949 µM
[34] = second compound 0.1 µM, first compound 0.3 µM
[35] = second compound 0.1 µM, first compound 0.949 µM
[36] = second compound 0.1 µM, first compound 3 µM
[37] = second compound 0.316 µM, first compound 0.00949 µM
[38] = second compound 0.316 µM, first compound 0.03 µM
[39] = second compound 0.316 µM, first compound 0.0949 µM
[40] = second compound 0.316 µM, first compound 0.3 µM
[41] = second compound 0.316 µM, first compound 0.949 µM
[42] = second compound 0.316 µM, first compound 3 µM
[43] = second compound 1 µM, first compound 0.00949 µM
[44] = second compound 1 µM, first compound 0.03 µM
[45] = second compound 1 µM, first compound 0.0949 µM
[46] = second compound 1 µM, first compound 0.3 µM
[47] = second compound 1 µM, first compound 0.949 µM
[48] = second compound 1 µM, first compound 3 µM
[49] = second compound 3.16 µM, first compound 0.00949 µM
[50] = second compound 3.16 µM, first compound 0.03 µM
[51] = second compound 3.16 µM, first compound 0.0949 µM
[52] = second compound 3.16 µM, first compound 0.3 µM
[53] = second compound 3.16 µM, first compound 0.949 µM
[54] = second compound 3.16 µM, first compound 3 µM
[55] = second compound 10 µM, first compound 0.00949 µM
[56] = second compound 10 µM, first compound 0.03 µM
[57] = second compound 10 µM, first compound 0.0949 µM
[58] = second compound 10 µM, first compound 0.3 µM
[59] = second compound 10 µM, first compound 0.949 µM
[60] = second compound 10 µM, first compound 3 µM

Structure (SMILES): CC1(C)CCC(CN2CCN(c3ccc(C(=O)NS(=O)(=O)c4ccc(NCC5CCOCC5)c([N+](=O)[O-])c4)c(Oc4cnc5[nH]ccc5c4)c3)CC2)=C(c2ccc(Cl)cc2)C1 + Cc1ccccc1N=Nc1ccc(NC(=O)c2ccnn2C)c(C)c1
- IC50 (second compound 0.1 µM): > 10 µM
- IC50 (second compound 0.316 µM): > 10 µM
- IC50 (second compound 1 µM): > 10 µM
- IC50 (second compound 3.16 µM): > 10 µM
- IC50 (second compound 10 µM): > 10 µM
- viability, T/C [1]: 97.2%
- viability, T/C [2]: 103%
- viability, T/C [3]: 95.2%
- viability, T/C [4]: 109%
- viability, T/C [5]: 89.5%
- viability, T/C [6]: 83.8%
- viability, T/C [7]: 109%
- viability, T/C [8]: 99%
- viability, T/C [9]: 102%
- viability, T/C [10]: 106%
- viability, T/C [11]: 97.8%
- viability, T/C [12]: 77.9%
- viability, T/C [13]: 97.5%
- viability, T/C [14]: 95.1%
- viability, T/C [15]: 96.7%
- viability, T/C [16]: 99.4%
- viability, T/C [17]: 91.8%
- viability, T/C [18]: 80%
- viability, T/C [19]: 95.6%
- viability, T/C [20]: 96.9%
- viability, T/C [21]: 99.2%
- viability, T/C [22]: 90.4%
- viability, T/C [23]: 77.1%
- viability, T/C [24]: 82.9%
- viability, T/C [25]: 94.6%
- viability, T/C [26]: 96.3%
- viability, T/C [27]: 88.3%
- viability, T/C [28]: 87.8%
- viability, T/C [29]: 75.7%
- viability, T/C [30]: 65.5%

Structure (SMILES): CC1COCCN1c1cc(C2(S(C)(=N)=O)CC2)nc(-c2ccnc3[nH]ccc23)n1 (stereo not given) + Cc1ccccc1N=Nc1ccc(NC(=O)c2ccnn2C)c(C)c1
- IC50 (second compound 0.1 µM): 6.08 µM
- IC50 (second compound 0.316 µM): 5.93 µM
- IC50 (second compound 1 µM): 6.52 µM
- IC50 (second compound 3.16 µM): 6.44 µM
- IC50 (second compound 10 µM): 5.28 µM
- viability, T/C [1]: 96.9%
- viability, T/C [2]: 103%
- viability, T/C [3]: 97.7%
- viability, T/C [4]: 101%
- viability, T/C [5]: 79.6%
- viability, T/C [6]: 27.6%
- viability, T/C [7]: 92%
- viability, T/C [8]: 97.6%
- viability, T/C [9]: 102%
- viability, T/C [10]: 106%
- viability, T/C [11]: 72.7%
- viability, T/C [12]: 31.1%
- viability, T/C [13]: 98%
- viability, T/C [14]: 96.8%
- viability, T/C [15]: 103%
- viability, T/C [16]: 93.2%
- viability, T/C [17]: 79.5%
- viability, T/C [18]: 32.8%
- viability, T/C [19]: 99.9%
- viability, T/C [20]: 105%
- viability, T/C [21]: 91.5%
- viability, T/C [22]: 89.2%
- viability, T/C [23]: 70.3%
- viability, T/C [24]: 37.1%
- viability, T/C [25]: 97.7%
- viability, T/C [26]: 97.2%
- viability, T/C [27]: 102%
- viability, T/C [28]: 88.5%
- viability, T/C [29]: 62.5%
- viability, T/C [30]: 34.8%

Structure (SMILES): CCN(c1cc(-c2ccc(CN3CCOCC3)cc2)cc(C(=O)NCc2c(C)cc(C)[nH]c2=O)c1C)C1CCOCC1 + Cc1ccccc1N=Nc1ccc(NC(=O)c2ccnn2C)c(C)c1
- IC50 (second compound 0.1 µM): > 3 µM
- IC50 (second compound 0.316 µM): > 3 µM
- IC50 (second compound 1 µM): > 3 µM
- IC50 (second compound 3.16 µM): > 3 µM
- IC50 (second compound 10 µM): > 3 µM
- viability, T/C [31]: 106%
- viability, T/C [32]: 104%
- viability, T/C [33]: 98.3%
- viability, T/C [34]: 107%
- viability, T/C [35]: 101%
- viability, T/C [36]: 110%
- viability, T/C [37]: 104%
- viability, T/C [38]: 106%
- viability, T/C [39]: 116%
- viability, T/C [40]: 111%
- viability, T/C [41]: 119%
- viability, T/C [42]: 118%
- viability, T/C [43]: 112%
- viability, T/C [44]: 106%
- viability, T/C [45]: 106%
- viability, T/C [46]: 97.4%
- viability, T/C [47]: 102%
- viability, T/C [48]: 98.6%
- viability, T/C [49]: 109%
- viability, T/C [50]: 114%
- viability, T/C [51]: 102%
- viability, T/C [52]: 93.3%
- viability, T/C [53]: 116%
- viability, T/C [54]: 94.2%
- viability, T/C [55]: 106%
- viability, T/C [56]: 102%
- viability, T/C [57]: 89.2%
- viability, T/C [58]: 100%
- viability, T/C [59]: 98.3%
- viability, T/C [60]: 103%

Structure (SMILES): Nc1ncn(C2CC(O)C(CO)S2)c(=O)n1 (stereo not given) + Cc1ccccc1N=Nc1ccc(NC(=O)c2ccnn2C)c(C)c1
- IC50 (second compound 0.1 µM): > 0.3 µM
- IC50 (second compound 0.316 µM): > 0.3 µM
- IC50 (second compound 1 µM): > 0.3 µM
- IC50 (second compound 3.16 µM): > 0.3 µM
- IC50 (second compound 10 µM): > 0.3 µM
- viability, T/C (second compound 0.1 µM, first compound 0.000949 µM): 102%
- viability, T/C (second compound 0.1 µM, first compound 0.003 µM): 99.8%
- viability, T/C [31]: 105%
- viability, T/C [32]: 99.6%
- viability, T/C [33]: 83.6%
- viability, T/C [34]: 68.7%
- viability, T/C (second compound 0.316 µM, first compound 0.000949 µM): 100%
- viability, T/C (second compound 0.316 µM, first compound 0.003 µM): 100%
- viability, T/C [37]: 103%
- viability, T/C [38]: 98.2%
- viability, T/C [39]: 100%
- viability, T/C [40]: 73.1%
- viability, T/C (second compound 1 µM, first compound 0.000949 µM): 99.6%
- viability, T/C (second compound 1 µM, first compound 0.003 µM): 96.5%
- viability, T/C [43]: 112%
- viability, T/C [44]: 97.1%
- viability, T/C [45]: 91.2%
- viability, T/C [46]: 75%
- viability, T/C (second compound 3.16 µM, first compound 0.000949 µM): 93.3%
- viability, T/C (second compound 3.16 µM, first compound 0.003 µM): 99.9%
- viability, T/C [49]: 94%
- viability, T/C [50]: 101%
- viability, T/C [51]: 86%
- viability, T/C [52]: 69.6%
- viability, T/C (second compound 10 µM, first compound 0.000949 µM): 91.1%
- viability, T/C (second compound 10 µM, first compound 0.003 µM): 108%
- viability, T/C [55]: 90.8%
- viability, T/C [56]: 88.2%
- viability, T/C [57]: 82.8%
- viability, T/C [58]: 63.4%

Structure (SMILES): O=C(C=Cn1cnc(-c2cc(C(F)(F)F)cc(C(F)(F)F)c2)n1)NNc1cnccn1 + Cc1ccccc1N=Nc1ccc(NC(=O)c2ccnn2C)c(C)c1
- IC50 (second compound 0.1 µM): 0.542 µM
- IC50 (second compound 0.316 µM): 0.52 µM
- IC50 (second compound 1 µM): 0.47 µM
- IC50 (second compound 3.16 µM): 0.566 µM
- IC50 (second compound 10 µM): 0.424 µM
- viability, T/C [31]: 103%
- viability, T/C [32]: 108%
- viability, T/C [33]: 104%
- viability, T/C [34]: 59.5%
- viability, T/C [35]: 41.4%
- viability, T/C [36]: 15.4%
- viability, T/C [37]: 109%
- viability, T/C [38]: 105%
- viability, T/C [39]: 115%
- viability, T/C [40]: 64.7%
- viability, T/C [41]: 38%
- viability, T/C [42]: 17.3%
- viability, T/C [43]: 113%
- viability, T/C [44]: 100%
- viability, T/C [45]: 104%
- viability, T/C [46]: 55.8%
- viability, T/C [47]: 38%
- viability, T/C [48]: 16.4%
- viability, T/C [49]: 91.6%
- viability, T/C [50]: 92.7%
- viability, T/C [51]: 101%
- viability, T/C [52]: 63.7%
- viability, T/C [53]: 38.6%
- viability, T/C [54]: 18.2%
- viability, T/C [55]: 88.4%
- viability, T/C [56]: 84.8%
- viability, T/C [57]: 74.5%
- viability, T/C [58]: 56.4%
- viability, T/C [59]: 34.8%
- viability, T/C [60]: 17.3%
